Data taken from patent US7544814B2, “[3.2.0] Heterocyclic compounds and methods of using the same” (Nereus Pharmaceuticals, Inc., priority 2004, dated 2009).
“And” between values parts separate entries of the source, which are not always exact repeats. Identical values can stand only once. Like-named read-outs stand apart in the source and are kept apart here.

Key:
[1] = test system: U266; assay: Cell growth inhibition (resazurin), U266; details: for EC50: 48 hours drug exposure
[2] = test system: B16-F10; assay: Cell growth inhibition (resazurin), B16-F10; details: from EC50 values
[3] = target: T1, caspase-like activity of purified rabbit muscle 20S proteasome (Oryctolagus cuniculus, UniProt A0A5F9DQW2); assay: In vitro inhibition of 20S proteasome caspase-like activity (Z-LLE-AMC)
T1 sequence (A0A5F9DQW2 1-212): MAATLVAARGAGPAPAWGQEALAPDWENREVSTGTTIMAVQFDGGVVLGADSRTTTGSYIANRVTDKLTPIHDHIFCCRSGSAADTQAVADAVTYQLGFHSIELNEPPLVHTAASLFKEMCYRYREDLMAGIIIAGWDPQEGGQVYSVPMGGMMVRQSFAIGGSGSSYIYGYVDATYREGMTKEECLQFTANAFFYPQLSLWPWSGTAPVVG

[4] = test system: HT-29; assay: Cell growth inhibition (resazurin), HT-29; details: from EC50 values
[5] = test system: LeTx-mediated cytotoxicity of RAW 264.7 cells; details: read-out: EC50 for inhibition of RAW 264.7 cell cytotoxicity mediated by anthrax lethal toxin; 45 minute preincubation, 1 μg/ml LF and PA, six hours; maximum concentration 330 nM
[6] = target: T2, trypsin-like activity of purified rabbit muscle 20S proteasome (Oryctolagus cuniculus, UniProt G1SWK8); assay: In vitro inhibition of 20S proteasome trypsin-like activity (Boc-LRR-AMC); details: under the conditions tested
T2 sequence (G1SWK8 1-271): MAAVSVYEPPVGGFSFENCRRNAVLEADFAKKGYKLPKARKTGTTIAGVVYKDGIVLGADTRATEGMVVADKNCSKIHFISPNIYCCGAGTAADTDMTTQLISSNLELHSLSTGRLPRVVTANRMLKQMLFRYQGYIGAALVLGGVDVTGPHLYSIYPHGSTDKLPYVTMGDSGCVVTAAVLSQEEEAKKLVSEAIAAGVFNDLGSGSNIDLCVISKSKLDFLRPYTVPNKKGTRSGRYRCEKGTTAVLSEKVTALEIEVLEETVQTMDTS

[7] = test system: MDA-MB-231; assay: Cell growth inhibition (resazurin), MDA-MB-231; details: from EC50 values
[8] = test system: PC-3; assay: Cell growth inhibition (resazurin), PC-3; assay type: cell-based, human; details: from EC50 values
[9] = test system: NF-κB; assay: NF-κB-mediated luciferase reporter gene assay, HEK293 NF-κB/Luc cells, TNF-α stimulation; assay type: cell-based, human
In short: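 Cells seeded at 1.5×10^4/well in phenol-red free DMEM, pretreated 1 h with 8-point half-log compound dilutions (DMSO stocks), then stimulated with TNF-α (10 μl of 50 ng/ml solution) for 6 h. Luciferase read as RLU after 10 min with Steady Lite reagent at room temperature.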

[10] = target: T2, trypsin-like activity of purified rabbit muscle 20S proteasome; assay: biochemical
[11] = target: T3, chymotrypsin-like activity of purified rabbit muscle 20S proteasome (Oryctolagus cuniculus, UniProt G1T4Q9); assay: In vitro inhibition of 20S proteasome chymotrypsin-like activity (suc-LLVY-AMC); details: EC50 Chymotrypsin-like, Table 6, values in nM
T3 sequence (G1T4Q9 1-263): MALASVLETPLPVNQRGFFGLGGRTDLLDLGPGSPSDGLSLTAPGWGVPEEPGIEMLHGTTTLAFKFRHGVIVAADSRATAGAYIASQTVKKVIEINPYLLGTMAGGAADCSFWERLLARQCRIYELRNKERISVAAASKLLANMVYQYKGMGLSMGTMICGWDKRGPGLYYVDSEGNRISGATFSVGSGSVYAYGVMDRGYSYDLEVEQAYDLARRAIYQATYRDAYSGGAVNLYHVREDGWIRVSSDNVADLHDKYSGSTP

[12] = test system: NCI-H292; assay: Cell growth inhibition (resazurin), NCI-H292; details: from EC50 values
[13] = test system: OVCAR-3; assay: Cell growth inhibition (resazurin), OVCAR-3
[14] = test system: RPMI 8226; assay: Cell growth inhibition (resazurin), RPMI 8226; details: for EC50: 48 hours drug exposure
[15] = Stability in solution; assay type: physicochemical; details: converted to VI-1B; mixture of II-48 and VI-1B in the ratio of 7:3
Protocol: The reaction mixture was stirred at room temperature for about 3 hours. The solvent was evaporated from the reaction mixture to yield the compound of Formula II-48, which was purified by reversed phase HPLC using Ace 5u C18 column (150 mm×22 mm ID) with a solvent gradient of 10% to 70% H2O/Acetonitrile over 15 min, 70 to 100% Acetonitrile over 5 min, holding at 100% Acetonitrile for 4 min, at a flow rate of 14.5 ml/min. Diode array detector was used to monitor the purification process. Compound II-48 (10 mg) eluted as a pure compound at 8.255 min. […] Compound VI-1B: UV (Acetonitrile/H2O) λmax 235 (sh) nm; ESMS, m/z 585.2 (M+H)^−.

C[C@@]12OC(=O)[C@]1([C@@H](O)[C@H]1CCCC3OC31)NC(=O)[C@@H]2CCCl (single isomer, unassigned) [Formula II-5A]
cytotoxicity against U266, in words ([1]; from EC50 values): cytotoxic
EC50 ([1]; read-out: EC50 against U266, Table 1): 9 nM
EC50 ([1]; read-out: U266 EC50, Table 2): 10 nM and 9 nM
cytotoxicity against B16-F10, in words [2]: cytotoxic
EC50 ([3]; EC50 Caspase-like, Table 6, values in nM): 535 nM and 438 nM
EC50 ([3]; EC50 values, caspase-like activity, summary of Table 6): 213 to 850 nM
cytotoxicity against HT-29, in words [4]: cytotoxic
EC50 [5]: 3 nM
inhibition of the trypsin-like activity of the 20S proteasome, in words [6]: able to inhibit
cytotoxicity against MDA-MB-231, in words [7]: cytotoxic
cytotoxicity against PC-3, in words [8]: cytotoxic
effect on luciferase activity upon TNF-α stimulation, in words ([9]; pretreatment of NF-κB/Luc 293 cells): dose-dependent decrease
EC50 ([9]; read-out: EC50, NF-κB-mediated luciferase reporter gene assay, Table 5, values in nM, 1 hr pretreatment, TNF-α 6 hr): 33 nM
EC50 [10]: 90 nM
EC50 [11]: 6 nM and 7 nM
cytotoxicity against NCI-H292, in words [12]: cytotoxic
cytotoxicity against OVCAR-3, in words ([13]; from EC50 values): cytotoxic
EC50 ([13]; read-out: EC50 against OVCAR-3, Table 1, 48 hours drug exposure): 64 nM
cytotoxicity against RPMI 8226, in words ([14]; from EC50 values): cytotoxic
EC50 ([14]; read-out: EC50 against RPMI 8226, Table 1): 29 nM
EC50 ([14]; read-out: RPMI 8226 EC50, Table 2, mean ± SD where n≥3): 36 nM and 29 nM

C[C@]1(O)[C@@H](CCCl)C(=O)N[C@]1(C(=O)SCC(NC(=O)CCC(N)C(=O)O)C(=O)NCC(=O)O)[C@@H](O)[C@@H]1C=CCCC1 (stereo partly shown) [Formula II-48]
stability in solution [15]: unstable in solution
